Measurements taken from patent publication US5288905A, “Glycyl urea derivatives as anti-convulsants” (G. D. Searle & Co., priority 1991, dated 1994).

Key:
mice [1] = assay: Inhibition of pentylenetetrazole (PTZ)-induced convulsions in mice; format: in vivo, male Swiss albino mice; conditions: Mus musculus, po; convulsant PTZ 55 mg/kg intravenously; compound orally; read-out: Inhibition of Convulsions by Cpd. #6 (ED50), PZT
Procedure: (§1) Treatment of a mammal afflicted by or susceptible to certain CNS disorders is accomplished by administration of a therapeutically-effective amount of a compound of Formula I. In particular, Compounds #1-11 of Table II were evaluated by in vitro and in vivo animal model assays to determine the pharmacological properties of such compounds and their likely suitability for use as therapeutic drugs in humans. These biological assays, as described below, consisted of prevention of induced convulsions in mice, determination of acute toxicity in mice and animal behavior assays. […]
(§2) Compounds of Formula I were evaluated as inhibitors of convulsions and death induced by different convulsant agents: 3-mercaptopropionic acid (3-MPA; 120 mg/kg subcutaneously), bicuculline (BIC, 0.6 mg/kg intravenously), pentylenetetrazole (PTZ, 55 mg/kg intravenously) and supramaximal electroconvulsive shocks (ECS evoked by a current intensity of 48 mA, 50 Hz. 0.2 sec duration, 10 msec square pulse, corneal electrodes) [W. van Dorsser, D. Barris, A. Cordi and J. Roba, Arch. […]
(§3) Based upon data generated from the previously-described anti-convulsant experiments, ED50 values were calculated at which Compound #6 inhibits convulsions induced by the convulsant agents listed in Table IV.

mice [2] = assay: Inhibition of convulsions induced by supramaximal electroconvulsive shocks (ECS) in mice; format: in vivo, male Swiss albino mice; conditions: Mus musculus, po; ECS 48 mA, 50 Hz, 0.2 sec, corneal electrodes; compound orally; read-out: Inhibition of Convulsions by Cpd. #6 (ED50), ECS
Procedure: as §1, §2, §3

mice [3] = tested on: mice; parameters: species or system male Swiss albino mice; conditions: mouse, in vivo, po
Procedure: (§4) Treatment of a mammal afflicted by or susceptible to certain CNS disorders is accomplished by administration of a therapeutically-effective amount of a compound of Formula I. In particular, Compounds #1-11 of Table II were evaluated by in vitro and in vivo animal model assays to determine the pharmacological properties of such compounds and their likely suitability for use as therapeutic drugs in humans. These biological assays, as described below, consisted of prevention of induced convulsions in mice, determination of acute toxicity in mice and animal behavior assays. Except as otherwise specified, the animals used in the in vivo tests were male Swiss albino mice weight 22 to 33 g [CDl, Charles River, France], housed in groups of 10 on a 12-hour dark-light cycle for at least one week before use and fasted overnight prior to testing.
Behavioral effects of compounds of the invention on animals were determined by observations taken at 5 to 6 hours and at 24 hours after administration of compounds in the acute toxicity studies. Determinations were made based on a method derived from that of S. Irwin [See R. A. Turner, Screening Methods in Pharmacology, Chapter 3, pages 22-34, Academic Press, N.Y. (1965)]. If an anomaly were noted, the observation was extended and smaller doses were tested. Possible types of behavior to be observed are as follows: analgesia (AAG), convulsions (CON), depression (DEP), exophthalmia (EOP), excitation (EXC), hyperalgesia (HAG), hypothermia (ATH), hypotonia (ATN), piloerection (PIE), palpebral ptosis (PTO), reduction of the pinna reflux (RPI), reduction of the rearing reflex (RRE), reduction of the flexion reflex (RRF), sedation (SED), tremors (TRE), cyanosis (CYA), diarrhea (DIA), increase of the pinna reflex (HPI), increase of the flexion reflex (HRF), dyspnea (DYS), toxic (TOX), zero ("0") means no effect. Behaviors observed are reported in Table V by numbers which represent the dose at which the behavior is observed.

[4] = Acute toxicity in mice after oral administration; parameters: species or system male Swiss albino mice; conditions: mouse, in vivo, mortality over 15 days
Procedure: as §4
The acute toxicity of compounds of the invention was determined after oral administration of the test compound to mice. Compound to be tested was suspended in a 1% tragacanth gum mucilage, and was administered by means of an intragastric probe to a group of three male mice. Doses used in the test were determined by observing toxic effects on the mice, which doses varied from 3,000 mg/kg down to about 3 mg/kg. The mortality was recorded over a period of 15 days. The LD50 results reported in Table V were calculated according to published methods [Lichtfield and Wilcoxon, J. Pharmacol. Exp. Ther., 96, 99 (1949)] and expressed in mg of test compound per kilogram of mouse body weight.

rat frontal cortex = assay: Chronic focal epilepsy assay (cobalt powder on rat frontal cortex, EEG spike activity); format: in vivo; conditions: ip, intraperitoneal, cobalt-induced spikes, read-out: threshold dose for inhibiting spike activities
Procedure: In a model of chronic focal epilepsy where cobalt powder is placed on rat frontal cortex, the animals develop, after several days, chronic expression of afterdischarge-like spike activity which can be recorded by EEG. Compound #6 has, when administered by intraperitoneal route, a threshold dose of 200 mg/kg for inhibiting these spike activities with the effect being observed from 30 to 90 minutes.

mice [5] = assay: 5HTP-induced head twitch in mice; format: in vivo, male Swiss albino mice; conditions: Mus musculus, po, 2 hours before 5HTP challenge (10 mg/kg i.p.) after nialamide 50 mg/kg i.p.; read-out: ED50 (inhibition of 5HTP-induced head twitches)
Procedure: as §4
Compound #6 was evaluated for inhibition of head twitches produced in mice by administration of L-5-hydroxytryptophan (5HTP, 10 mg/kg intraperitoneously) after nialamide treatment (50 mg/kg intraperitoneal, 22 hours before the test). The head twitches were counted for 45 min. starting 15 min. after 5HTP administration. [E. Friedmann et al.; Europ. J. Pharmocol., 89, 69-76 (1983)].

mice [6] = assay: Prevention of 3-mercaptopropionic acid (3-MPA)-induced convulsions in mice; format: in vivo, male Swiss albino mice; conditions: for Number of Mice Protected From Convulsions Induced by 3-MPA at 100 mg/kg, 30 min interval / Number of Mice Protected From Convulsions Induced by 3-MPA at 100 mg/kg, 2 hr interval: 100 mg/kg orally, 3-MPA 120 mg/kg subcutaneously, two groups of five animals; for Number of Mice Protected From Convulsions Induced by 3-MPA at 100 mg/kg, 30 min interval: 30 min before convulsions induced; for Number of Mice Protected From Convulsions Induced by 3-MPA at 100 mg/kg, 2 hr interval: 2 hr before convulsions induced
Procedure: as §4
(§5) Compounds of Formula I were evaluated as inhibitors of convulsions and death induced by different convulsant agents: 3-mercaptopropionic acid (3-MPA; 120 mg/kg subcutaneously), bicuculline (BIC, 0.6 mg/kg intravenously), pentylenetetrazole (PTZ, 55 mg/kg intravenously) and supramaximal electroconvulsive shocks (ECS evoked by a current intensity of 48 mA, 50 Hz. 0.2 sec duration, 10 msec square pulse, corneal electrodes) [W. van Dorsser, D. Barris, A. Cordi and J. Roba, Arch. Int. Pharmacodyn., 266, 239-249 (1983)]. The compounds of the invention were administered orally at a dosage of either 100 mg/kg or 30 mg/kg in a volume of 10 ml/kg each to 5 mice. Tonic convulsions and the number of dead mice were noted. Results are given in Table III as a score which represents the total number of mice protected from convulsions induced by 3-mercaptopropionic acid at dose of 100 mg/kg for two groups of five animals, or the percentage of mice protected from convulsions induced by bicuculline at a dose of 30 mg/kg for four groups of five animals.
as §3

mice [7] = assay: Prevention of bicuculline (BIC)-induced convulsions in mice; format: in vivo, male Swiss albino mice; conditions: Mus musculus, po; 30 mg/kg orally; bicuculline 0.6 mg/kg intravenously; four groups of five animals; read-out: Percentage of Mice Protected from Bicuculline
Procedure: as §4, §5

| SMILES | ED50 (mice [1]) | ED50 (mice [2]) | Behavior (dose at which the behavior is observed : behavior) (mice [3]) | LD50 at 360 h [4] | minimal effective dose (rat frontal cortex) | ED50 (mice [5]) | Number of Mice Protected From Convulsions Induced by 3-MPA at 100 mg/kg, 30 min interval (mice [6]) | Number of Mice Protected From Convulsions Induced by 3-MPA at 100 mg/kg, 2 hr interval (mice [6]) | ED50 (mice [6]; Mus musculus, po, convulsant 3-MPA 120 mg/kg subcutaneously, compound orally, read-out: Inhibition of Convulsions by Cpd. #6 (ED50), 3-MPA) | responders at 30 mg/kg (mice [7]) |
| --- | --- | --- | --- | --- | --- | --- | --- | --- | --- | --- |
| CCCCCCCCNCC(=O)NC(=O)NCCc1ccccc1 [Compound 6, 1-(2-phenylethyl)-3-(2-octylamino-1-oxoethyl)urea] | 56 mg/kg | 60 mg/kg | 1000:SED, ATN | > 3000 mg/kg | 200 mg/kg | 200 mg/kg | 9 mice | 9 mice | 16 mg/kg | 35% |
| O=C(CNC(c1ccccc1)c1ccccc1)NC(=O)NCCc1ccccc1 [Compound 11, 1-(2-phenylethyl)-3-(2-diphenylmethylamino-1-oxoethyl)urea] | – | – | – | – | – | – | 0 mice | – | – | – |
| CCCCCCCCNC(=O)NC(=O)CNCCc1ccccc1 [Compound 3, 1-octyl-3-[2-(2-phenylethyl)amino-1-oxoethyl]urea] | – | – | 3000:SED, ATN | > 3000 mg/kg | – | – | 6 mice | 3 mice | – | 55% |
| CNC(=O)NC(=O)CNC(c1ccccc1)c1ccccc1 [Compound 10, 1-methyl-3-(2-diphenylmethylamino-1-oxoethyl)urea] | – | – | – | – | – | – | 1 mice | – | – | – |
| CCCCCCCCNC(=O)NC(=O)CNCCCCC [Compound 1, 1-octyl-3-(2-pentylamino-1-oxoethyl)urea] | – | – | 1000:0 mg/kg | > 1000 mg/kg | – | – | 0 mice | – | – | 35% |
| CCCCCNC(=O)NC(=O)CNCCc1ccccc1 [Compound 7, 1-pentyl-3-[2-(2-phenylethyl)amino-1-oxoethyl]urea] | – | – | 1000:SED | > 3000 mg/kg | – | – | 1 mice | – | – | 25% |
| CCCCCCCCNCC(=O)NC(=O)NCCCCC [Compound 9, 1-pentyl-3-(2-octylamino-1-oxoethyl)urea] | – | – | 1000:0 mg/kg | > 1000 mg/kg | – | – | 7 mice | 4 mice | – | 35% |
| CCCCCNCC(=O)NC(=O)NCCc1ccccc1 [Compound 2, 1-(2-phenylethyl)-3-(2-pentylamino-1-oxoethyl)urea] | – | – | 1000:SED, RPI, RRE | > 1000 mg/kg | – | – | 3 mice | – | – | 25% |
| CCCCCNCC(=O)NC(=O)NCCCCC [Compound 8, 1-pentyl-3-(2-pentylamino-1-oxoethyl)urea] | – | – | – | > 3000 mg/kg | – | – | 0 mice | – | – | 40% |
| CCCCCCCCNCC(=O)NC(=O)NCCCCCCCC [Compound 4, 1-octyl-3-(2-octylamino-1-oxoethyl)urea] | – | – | 3000:0 mg/kg | > 3000 mg/kg | – | – | 4 mice | 3 mice | – | 35% |
| O=C(CNCCc1ccccc1)NC(=O)NCCc1ccccc1 [Compound 5, 1-(2-phenylethyl)-3-[2-(2-phenylethyl)amino-1-oxoethyl]urea] | – | – | 3000:TOX, DEP | 1750 mg/kg | – | – | 6 mice | 1 mice | – | 45% |
